From patent US20210106649A1, “SYNERGISTIC COMBINATION OF CHEMOTHERAPY AND PEPTIDE FOR TREATING CANCER” (TOBEBIO Novel Drug Laboratory Co., Ltd., priority 2019, published 2021)
Ends that are not written are not given here.

Test system: AsPC-1 pancreatic cancer cells
Experiment: Survival analysis of AsPC-1 pancreatic cancer orthotopic mice model
Type: in vivo, athymic nude mice
Details: alloferon-1 2.5 mg/kg daily s.c.; paclitaxel 8 mg/kg weekly i.p.; orthotopic AsPC-1 nude mice
Experimental: AsPC-1, human pancreas adenocarcinoma cell line, was purchased from American Type Culture Collection (ATCC) and maintained in a complete Eagle's minimal essential medium (MEM) medium supplemented with 10% fetal bovine serum (FBS) (Hyclone), non-essential amino acid, sodium pyruvate, penicillin-streptomycin and vitamin solution (Life Technologies). AsPC-1 cells were incubated at 37° C. in a mixture atmosphere of 5% CO2 and 95% […]. Cell lines were authenticated via short tandem repeat (STR) profiling (Cosmogenetech).
The number of survival days for all animals was recorded and statistical analysis was performed using the GraphPad Prism 8. Kaplan-Meier survival plots were analyzed with the Log-rank (Mantel-Cox) test to compare survival rates between groups. A probability (P) value of <0.05 or lower was considered statistically significant.

Row | Compound | Median survival [days]
1 | HGVSGHGQHGVHG [Alloferon-1] | 91
2 | CC(=O)O[C@H]1C(=O)[C@@]2(C)[C@H]([C@H](OC(=O)c3ccccc3)[C@]3(O)C[C@H](OC(=O)[C@H](O)[C@@H](NC(=O)c4ccccc4)c4ccccc4)C(C)=C1C3(C)C)[C@]1(OC(C)=O)CO[C@@H]1C[C@@H]2O [Paclitaxel, paclitaxel] | 107
